Experimental data: ChEMBL document CHEMBL6182916, “Unexpected Discovery of a Novel Triphenylphosphonium Alkylalcohol That Triggers Cancer Cell Death via Mitophagy and Ferroptosis” (J Med Chem, 2025)
Active and inactive are the calls of the source. The rule behind the calls is not given here.

How the values were obtained:
HCC827 [1] = test: Induction of apoptosis in human HCC827 cells assessed as viable cells at 0.25 uM measured after 48 hrs by annexin V and PI staining based flow cytometry analysis (reference value: 96.74%); assay type: functional; conditions: read-out: Activity
MCF7 = test: Antiproliferative activity against human MCF7 cells assessed as inhibition of cell growth measured after 72 hrs by MTT assay; assay type: functional, cell-based; conditions: MCF7, 72 h
HCC827 [2] = test: Effect on NDUFB8 expression in human HCC827 cells at 0.25 to 0.5 uM incubated for 24 hrs by Western blot analysis; assay type: functional, cell-based; conditions: dose 0.25-0.5 µM
HeLa [3] = test: Induction of mitophagy in human HeLa cells harbouring mCherry-GFP tag assessed as visible mCherry fluorescence at 0.5 uM incubated for 24 hrs by confocal microscopy analysis; assay type: functional, cell-based
HCC827 [4] = test: Induction of apoptosis in human HCC827 cells assessed as early apoptotic cells at 1 uM measured after 48 hrs by annexin V and PI staining based flow cytometry analysis (reference value: 1.80%); assay type: functional
HCC827 [5] = test: Downregulation of SDHB expression in human HCC827 cells at 0.25 to 0.5 uM; assay type: functional, cell-based; conditions: dose 0.25-0.5 µM
[6] = Toxicity in male Kunming mouse assessed as change in body weight at 50 mg/kg, ip measured every two days for 7 days; assay type: organism-based; conditions: in vivo, 168 h, time 7 day
HCC827 [7] = test: Induction of ROS generation in human HCC827 cells assessed as fold change at 1 uM incubated for 4 hrs in presence of VC by DCFH-DA staining based by absorbance based laser confocal microscopic analysis (reference value: 2.67); assay type: functional
[8] = Antiproliferative activity against human BEAS-2B cells assessed as inhibition of cell growth measured after 72 hrs by MTT assay; assay type: toxicity, cell-based
HCC827 [9] = test: Induction of cell cycle arrest in human HCC827 cells assessed as accumulation of cells at G1 phase at 0.2 uM incubated for 24 hrs by PI staining based flow cytometry analysis (reference value: 66.44%); assay type: functional
Mitochondrial membrane [10] = test: Induction of mitochondrial membrane depolarization in human BEAS-2B cells assessed as JC-1 monomer ratio by measuring increase green fluorescence at 0.25 uM incubated for 4 hrs by JC-1 staining based confocal microscopy analysis; assay type: cell membranes
HCC827 [11] = test: Induction of mitochondrial dysfunction in human HCC827 cells assessed as reduction in glycolytic capacity at 0.125 to 5 uM incubated for 4 hrs by Seahorse XF96 extracellular flux analyzer; assay type: functional, cell-based; conditions: dose 0.125-5 µM
HCC827 [12] = test: Antiproliferative activity against human HCC827 cells assessed as increase in cell viability at 1 uM measured after 48 hrs in presence of 3-MA by MTT assay; assay type: functional, cell-based
HCC827 [13] = test: Downregulation of HK-2 expression level in human HCC827 cells 0.5 uM incubated for 3 to 24 hrs in presence of BFA by Western blot analysis; assay type: functional, cell-based; conditions: time 3-24 hrs
HeLa [14] = test: Induction of mitophagy in human HeLa cells assessed as colocalization of mitochondria and lysosomes at 0.5 uM by mitoGFP staining based confocal microscopy analysis; assay type: functional, cell-based
HCC827 [15] = test: Antimetastatic activity against human HCC827 cells xenografted in female nude mouse model assessed as decrease in snail level at 5 to 10 mg/kg, ip by Western blot analysis; assay type: functional, organism-based; conditions: dose 5-10 mg/kg
HCC827 [16] = test: Induction of ferroptosis in human HCC827 cells assessed as decrease in GPX4 expression incubated for 24 hrs; assay type: functional, cell-based; conditions: dose 0.25-0.5 µM
HCC827 [17] = test: Induction of apoptosis in human HCC827 cells assessed as necrotic cells at 1 uM measured after 24 hrs by annexin V and PI staining based flow cytometry analysis (Rvb =0.84%); assay type: functional
Mitochondrial membrane [18] = test: Induction of mitochondrial membrane depolarization in human HCC827 cells assessed as decrease in red fluorescence at 0.125 to 0.5 uM incubated for 4 hrs by JC-1 staining based confocal microscopy analysis; assay type: cell membranes; conditions: dose 0.125-0.5 µM
HCC827 [19] = test: Induction of apoptosis in human HCC827 cells assessed as viable cells at 1 uM measured after 48 hrs by annexin V and PI staining based flow cytometry analysis (reference value: 95.10%); assay type: functional; conditions: read-out: Activity
HCC827 [20] = test: Downregulation of SDHB expression in human HCC827 cells at 0.25 uM by Western blot analysis; assay type: functional, cell-based; conditions: time <= 24.0 hrs
HCC827 [21] = test: Inhibition of cell migration in human HCC827 cells at 0.05 to 0.1 uM incubated for 24 hrs by crystal violet staining based transwell assay; assay type: functional; conditions: dose 0.05-0.1 µM
HCC827 [22] = test: Induction of apoptosis in human HCC827 cells assessed as early apoptotic cells at 1 uM measured after 24 hrs by annexin V and PI staining based flow cytometry analysis (reference value: 1.80%); assay type: functional
HCC827 [23] = test: Effect on NDUFB8 expression in human HCC827 cells at 0.25 to 0.5 uM; assay type: functional, cell-based; conditions: dose 0.25-0.5 µM
HCC827 [24] = test: Induction of mitochondrial dysfunction in human HCC827 cells assessed as mitochondrial shrinkage by TEM analysis; assay type: functional, cell-based
HCC827 [25] = test: Downregulation of VDAC1 expression level in human HCC827 cells 0.5 uM by Western blot analysis; assay type: functional, cell-based; conditions: time 3-24 hrs
HCC827 [26] = test: Antiproliferative activity against human HCC827 cells assessed as cell viability preincubated with FMK followed by compound addition and measured after 48 hrs by MTT assay; assay type: functional, cell-based
HCC827 [27] = test: Antitumor activity against human HCC827 cells xenografted in female nude mouse model assessed as suppression of tumor growth at 5 to 10 mg/kg, ip measured every two days for 14 days; assay type: functional, organism-based; conditions: dose 5-10 mg/kg, time 14.0 day
HCC827 [28] = test: Antiproliferative activity against human HCC827 cells assessed as cell viability at 1 uM measured after 48 hrs in presence of ferrostatin-1 by MTT assay relative to control; assay type: functional; conditions: read-out: Activity
HCC827 [29] = test: Induction of apoptosis in human HCC827 cells assessed as early apoptotic cells at 1 uM measured after 36 hrs by annexin V and PI staining based flow cytometry analysis (reference value: 1.80%); assay type: functional
HCC827 [30] = test: Induction of apoptosis in human HCC827 cells assessed as late apoptotic cells at 1 uM measured after 48 hrs by annexin V and PI staining based flow cytometry analysis (reference value: 2.18%); assay type: functional
A-375 = test: Antiproliferative activity against human A-375 cells assessed as inhibition of cell growth measured after 72 hrs by MTT assay; assay type: functional, cell-based; conditions: A-375, 72 h
HCC827 [31] = test: Induction of ROS generation in human HCC827 cells assessed as green fluorescence intensity at 1 uM incubated for 24 hrs by DCFH-DA staining based by absorbance based laser confocal microscopic analysis; assay type: functional, cell-based
HCC827 [32] = test: Induction of cell cycle arrest in human HCC827 cells assessed as increase in p53 expression level at 0.25 to 5 uM measured after 24 hrs by Western blot analysis; assay type: functional, cell-based; conditions: dose 0.25-5 µM
HCC827 [33] = test: Downregulation of HK-2 expression level in human HCC827 cells 0.5 uM by Western blot analysis; assay type: functional, cell-based; conditions: time 3-24 hrs
HCC827 [34] = test: Induction of cell cycle arrest in human HCC827 cells assessed as accumulation of cells at S phase at 0.4 uM incubated for 24 hrs by PI staining based flow cytometry analysis (reference value: 26.41%); assay type: functional
HCC827 [35] = test: Induction of apoptosis in human HCC827 cells assessed as early apoptotic cells at 0.5 uM measured after 48 hrs by annexin V and PI staining based flow cytometry analysis (reference value: 0.70%); assay type: functional

In the case of Cc1ccc([P+](CCCCCCCCCCO)(c2ccc(C)cc2)c2ccc(C)cc2)cc1.[Br-], the viability at 0.25 µM (HCC827 [1]) is reported as 92.6%, the IC50 (MCF7) is reported as 0.16 µM and the Activity (HCC827 [2]) is reported as “Active”. For the same compound, the Activity (HeLa [3]) was “Active”, the Activity (HCC827 [4]) was 5.33% and the Activity (HCC827 [5]) was “Active”. For the same compound, the Activity [6] was “Toxic”, the Activity (HCC827 [7]) was 0.8 and the IC50 at 72 h [8] was 1.42 µM. For the same compound, the Activity (HCC827 [9]) was 76.74%, the Activity (Mitochondrial membrane [10]) was “inactive” and the Activity (HCC827 [11]) was “Active”. The Activity (HCC827 [12]) was “Active”, the Activity (HCC827 [13]) was “inactive” and the Activity (HeLa [14]) was “Active”. For the same compound, the Activity (HCC827 [15]) was “Active”, the Activity (HCC827 [16]) was “Dose-dependent-effect” and the Activity (HCC827 [17]) was 1.47%. For the same compound, the Activity (Mitochondrial membrane [18]) was “Active”, the viability at 1 µM (HCC827 [19]) was 91.9% and the Activity (HCC827 [20]) was “Time-dependent-effect”. The inhibition (HCC827 [21]) was “Active”, the Activity (HCC827 [22]) was 1.17% and the Activity (HCC827 [23]) was “Active”. For the same compound, the Activity (HCC827 [24]) was “Active”, the Activity (HCC827 [25]) was “Time-dependent-effect” and the IC50 (HCC827 [26]) was 0.11 µM. For the same compound, the Activity (HCC827 [27]) was “Active”, the viability at 1 µM (HCC827 [28]) was 51.4% and the Activity (HCC827 [29]) was 0.18%. For the same compound, the Activity (HCC827 [30]) was 0.75%, the IC50 (A-375) was 0.14 µM and the Activity (HCC827 [31]) was “Active”. The Activity (HCC827 [32]) was “Active”, the Activity (HCC827 [33]) was “Time-dependent-effect” and the Activity (HCC827 [34]) was 9.39%. For the same compound, the Activity (HCC827 [35]) was 2.34%.
